Consider 18 molecules from PMC2650103 (Journal of medicinal chemistry, 2008).

Each structure is given as a SMILES string. Like-named read-outs stand apart in the source and are kept apart here.

Series [1] relates to vaccinia virus WR in BS-C-1 cells. Put plainly: microbe, parasite or virus in culture. The series is classed as cell-based. The following applies: Orthopoxvirus vaccinia, BSC-1, 20 h, read-out: Cell Prot EC50.
Series [2] shares this test system. The series is classed as cell-based.
For series [3], the system named is BS-C-1 cells. The following applies: African green monkey.
The conditions of series [4]: cited from earlier work.
Series [5] in a line: Solubility in cell growth medium by light scattering. As to conditions: at the EC50 / over the range of concentrations used in the activity assays.
Series [6] deals with vaccinia virus WR in BS-C-1 cells. Kind of series: microbe, parasite or virus in culture. In kind it is cell-based. The following applies: Orthopoxvirus vaccinia, BSC-1, 20 h, read-out: Plaque Red EC50.
Series [7] relates to multiple orthopoxviruses, including two strains of variola virus. As to conditions: cited from earlier work.

In general, EC50 refers to the concentration giving half of the maximal effect. In the case of `Nc1ccn(C[C@@H](CO)OCP(=O)(O)O)c(=O)n1.O.O` [CDV, (S)-1-(3-hydroxy-2-phosphonylmethoxypropyl)cytosine, reference compound], the EC50 in series [1] is 132 µM. The “Trapped by dsDNA” value in series [2] was “No”. In addition, in series [3], the “Tox 72 h TC50” value is >500 ∞M and the “Tox 120 h TC50” value is recorded as 300 ∞M. Also, in series [4], the “Toxicity on intravenous administration” value was “nephrotoxicity”.
Turning to `COC(=O)c1cccc2c1-c1ccccc1/C2=N\O` [Compound 1], the “Trapped by dsDNA” value in series [2] is reported as “No”. The “Tox 120 h TC50” value in series [3] is listed as 20 ∞M.
Regarding `CCOC(=O)c1c(NC(=O)/C=C/C(=O)O)sc(C)c1-c1ccccc1` [Compound 2], the “Trapped by dsDNA” value in series [2] is given as “No”.
In the case of `CCn1c2ccccc2c2ccc(/C=N/n3cnnc3)cc21` [Compound 3], the “Trapped by dsDNA” value in series [2] is on record as “No”. Besides, in series [3], the “Tox 72 h TC50” value is on record as 36 ∞M and the “Tox 120 h TC50” value was 3 ∞M.
As for `Cc1csc2c(N3CCN(C(=O)NC(C)(C)C)CC3)ncnc12` [Compound 4], the “Trapped by dsDNA” value in series [2] is given as “No”. In addition, in series [3], the “Tox 120 h TC50” value was 40 ∞M.
As to `CCNc1nc(SCc2ccc(Cl)cc2)nc2sc3c(c12)CCN(C)C3` [Compound 5], in series [2], the “Trapped by dsDNA” value is “No”. For the same molecule, in series [3], the “Tox 120 h TC50” value was 5 ∞M.
Turning to `Cc1cc(/N=C/c2cc(Cl)cc(Cl)c2O)no1` [Compound 6], the “Trapped by dsDNA” value in series [2] was “No”. Also, in series [3], the “Tox 72 h TC50” value is recorded as 50 ∞M and the “Tox 120 h TC50” value was 20 ∞M.
Take `Cc1c(/N=C/c2cc(Br)cc(Br)c2O)cccc1C(=O)O` [Compound 7]: the “Trapped by dsDNA” value in series [2] is “No”. Further, in series [3], the “Tox 72 h TC50” value is given as 38 ∞M and the “Tox 120 h TC50” value is given as 20 ∞M.
In the case of `Cc1cc(OC(=O)c2ccco2)nc(SCc2c(Cl)cccc2Cl)n1` [Compound 8], in series [2], the “Trapped by dsDNA” value is reported as “No”. In series [3], the “Tox 72 h TC50” value is recorded as >100 ∞M and the “Tox 120 h TC50” value was >100 ∞M. Also, the “Solubility in cell growth medium” value in series [5] is “just slightly insoluble”.
As to `O=C(Nc1ccccc1C(=O)O)OCC1c2ccccc2-c2ccccc21` [Compound 9], the EC50 in series [1] was 104 µM. Further, in series [2], the “Trapped by dsDNA” value is on record as “No”. In series [3], the “Tox 72 h TC50” value is 40 ∞M and the “Tox 120 h TC50” value is given as 20 ∞M.
As to `CCS(=O)(=O)N1CCN=C1SCc1ccc(Cl)cc1Cl` [Compound 10], the “Trapped by dsDNA” value in series [2] was “No”. Also, the “Solubility in cell growth medium” value in series [5] is on record as “just slightly insoluble”.
Turning to `Cc1ccc2c(Sc3ccc(Cl)cc3)c(C(=O)O)[nH]c2c1` [Compound 11], the 50% effective concentration (EC50) in series [1] turned out to be 130 µM. Besides, the “Trapped by dsDNA” value in series [2] was “No”. Besides, in series [3], the “Tox 72 h TC50” value was 174 ∞M and the “Tox 120 h TC50” value is reported as 120 ∞M.
Consider `N=C1S/C(=C/c2ccco2)C(=O)N1c1nccs1` [Compound 12], for which, in series [2], the “Trapped by dsDNA” value was “No”. Besides, in series [3], the “Tox 72 h TC50” value is given as >100 ∞M and the “Tox 120 h TC50” value is recorded as 50 ∞M. Moreover, the “Solubility in cell growth medium” value in series [5] was “just slightly insoluble”.
Turning to `O=C(O)Cn1c2ccc(Cl)cc2c2nc3ccccc3nc21` [Compound 13], in series [2], the “Trapped by dsDNA” value is “No”. Also, in series [3], the “Tox 72 h TC50” value is recorded as 13 ∞M and the “Tox 120 h TC50” value was 30 ∞M. Moreover, the “Solubility in cell growth medium” value in series [5] is given as “just slightly insoluble”.
With `N=C1/C(=C/c2coc3ccccc3c2=O)C(=O)N=C2SC=NN12` [Compound 14], the EC50 in series [6] is 150 µM; in series [1], 188 µM. In series [2], the “Trapped by dsDNA” value is “No”. Besides, the “Tox 72 h TC50” value in series [3] was >200 ∞M. Further, in series [3], the “Tox 120 h TC50” value is 50 ∞M.
As for `CC(=O)n1c2ccccc2c2nc(C)sc21` [Compound 15], in series [1], the EC50 came out at 236 µM. Moreover, the “Trapped by dsDNA” value in series [2] is “No”. Further, in series [3], the “Tox 72 h TC50” value is >200 ∞M and the “Tox 120 h TC50” value is reported as 75 ∞M.
With `O=C1/C(=C/C2CCCO2)CC/C1=C\C1CCCO1` (stereo not drawn) [Compound 16], the “Trapped by dsDNA” value in series [2] is recorded as “No”. For the same molecule, in series [3], the “Tox 72 h TC50” value is >100 ∞M and the “Tox 120 h TC50” value is reported as 50 ∞M. The “Solubility in cell growth medium” value in series [5] is given as “just slightly insoluble”.
Regarding `O=C(NN1C(=O)C2C3C=CC(C4CC34)C2C1=O)c1ccc(C(F)(F)F)cc1` (stereo not drawn) [Compound 30, 4-trifluoromethyl-N-(3,3a,4,4a,5,5a,6,6a-octahydro-1,3-dioxo-4,6-ethenocycloprop[f]isoindol-2(1H)-yl)-benzamide], the “Growth of orthopoxviruses in cell cultures” value in series [7] is on record as “inhibit the growth”.
